Experiments:
[1] = tested on: liver cancer cells Huh7; assay: Inhibition of fluorescently labeled DNA uptake by liver cancer cells; format: cell-based; conditions: then labeled DNA for 8 hours
Experimental: 1.8 KB of AFP (alpha feto protein) DNA is obtained through PCR (polymerase chain reaction), extracted with phenol-chloroform and adjusted to a concentration of 1 μg/mL. 5 μg of DNA is taken, and Rhodamine (fluorescent marker) is added. The mixture is allowed to stand at 37° C. for 1 hour, and purified in a G-50 Sephadex (purification column).
1640 medium is taken, and FBS (fetal bovine serum) is added, wherein the mass of FBS (fetal bovine serum) is 10% of that of 1640 medium. Put the mixture aside.
Eight groups of liver cancer cells Huh7 are inoculated into a 1640 medium respectively containing 10% FBS (fetal bovine serum) and cultured at 37° C. for 12 hours in an incubator containing 5% CO2.
Cells obtained through culture are rinsed 3 times with PBS and fixed with 4% formalin. The cells fixed as described above are photographed with a fluorescence microscope. […] The concentration of T3 is: 0 ng/mL, 1 ng/mL, 50 ng/mL and 100 ng/mL respectively.

[2] = tested on: liver cancer cells Huh7; assay: Inhibition of liver cancer cell proliferation (CellTiter 96 AQueous One Solution); format: cell-based; conditions: 72 hours, 490 nm absorbance
Experimental: (§1) Liver cells LO2 and liver cancer cells Huh7 are inoculated into a 1640 medium containing 10% FBS (fetal bovine serum) respectively, and cultured at 37° C. for 12 hours in an incubator containing 5% CO2. […] The CellTiter 96® AQueous One Solution kit is used to determine the cells. 20 μL of analytical reagents are added and readings are taken at 490 nm absorbance.

[3] = tested on: H22 mouse liver cancer cells; assay: Inhibition of the growth of mouse liver cancer tumors; format: in vivo, Kunming mice; conditions: for Inhibition rate (ninth day): vs normal saline group, hydrochloride; for tumor volume, Ninth day / tumor volume, Sixth day / tumor volume, Third day: H22 tumors in Kunming mice
Experimental: Preparation of tumor cell suspension: H22 mouse liver cancer cells are inoculated into a 1640 medium containing 10% FBS (fetal bovine serum), and cultured at 37° C. for 12 h in an incubator containing 5% CO2. When the cells grow to the logarithmic phase, the above medium is prepared into a cell suspension, and the concentration of H22 mouse liver cancer cells is controlled to 1×10^6 cells/mL to obtain the tumor cell suspension for later use.
Building of animal tumor model: 30 SPF grade Kunming mice, male and (20±2) g, are taken. […] The right armpit skin of mice in each group is disinfected with alcohol, and 0.2 mL of the above tumor cell suspension is drawn with a 1 mL syringe, and inoculated into the disinfected part of the mice by slow hypodermic injection. All mice are given sufficient water and feed, the litter is kept dry and the tumor growth of the mice is observed. Generally, 7 days after modeling, obvious tumor nodules can be felt under the armpits of the mice, which means that the modeling was successful.

[4] = tested on: liver cells LO2; assay: Proliferation of liver cells (CellTiter 96 AQueous One Solution); format: cell-based; conditions: 72 hours, 490 nm absorbance
Experimental: as §1

[5] = tested on: LLC lung cancer cell strains; assay: Inhibition of the growth of mouse lung cancer tumors; format: in vivo, CK57BL mice; conditions: for Inhibition rate on the seventh day: 480 mg/kg intraperitoneally once a day for 7 days, vs normal saline group, hydrochloride
Experimental: Preparation of tumor cell suspension: LLC lung cancer cell strains are inoculated into a DMEM medium containing 10% FBS (fetal bovine serum), and cultured at 37° C. for 12 h in an incubator containing 5% CO2. When the cells grow to the logarithmic phase, the above medium is prepared into a cell suspension, and the concentration is 1×10^6 cells/mL to obtain the lung cancer cell suspension for later use.
Building of animal tumor model: 20 SPF grade CK57BL mice, male and (20±2) g, are taken. The above mice are kept in a laboratory without particular pathogens. The right armpit skin of the mice is disinfected with alcohol, and 0.2 mL of the above tumor cell suspension is drawn with a 1 mL syringe, and inoculated into the disinfected part of the mice by slow hypodermic injection. All mice are given sufficient water and feed, the litter is kept dry and the tumor growth of the mice is observed. Generally, about 10 days after modeling, obvious tumor nodules can be felt under the armpits of the mice, which means that the modeling was successful.

[6] = high-dose, 480 mg/kg intraperitoneally twice a day
[7] = low-dose, 240 mg/kg intraperitoneally twice a day
[8] = 480 mg/kg intraperitoneally once a day, LLC tumors in CK57BL mice

Molecule | uptake of fluorescently labeled DNA by liver cancer cells ([1]; control groups with 0, 1, 50, 100 ng/mL T3 for 24 hours) | growth of cancer cells Huh7 ([2]; 6 mmol/L) | growth of cancer cells Huh7 ([2]; 20 mmol/L) | Inhibition rate (ninth day) ([3]; high-dose, 480 mg/kg intraperitoneally twice a day for 9 days, 480 mg/kg) | tumor volume, Ninth day [3, 6] | tumor volume, Sixth day [3, 6] | tumor volume, Third day [3, 6] | Inhibition rate (ninth day) ([3]; low-dose, 240 mg/kg intraperitoneally twice a day for 9 days, 240 mg/kg) | tumor volume, Ninth day [3, 7] | tumor volume, Sixth day [3, 7] | tumor volume, Third day [3, 7] | uptake of fluorescently labeled DNA by liver cancer cells ([1]; 0, 1, 25, 50 mmol/L guanidine hydrochloride for 24 hours, fluorescence microscope) | growth of liver cells LO2 ([4]; 6 mmol/L) | growth of liver cells LO2 ([4]; 20 mmol/L) | Inhibition rate on the seventh day [5] | Inhibition rate on the seventh day ([5]; listed as Guanidine hydrochloride) | tumor volume, First day [5, 8] | tumor volume, Seventh day [5, 8] | tumor volume, Third day [5, 8]
N[C@@H](Cc1cc(I)c(Oc2ccc(O)c(I)c2)c(I)c1)C(=O)O [triiodothyronine] | do not affect the uptake |  |  |  |  |  |  |  |  |  |  |  |  |  |  |  |  |  | 
guanidine hydrochloride |  | begins to significantly inhibit | significantly inhibited | 42% | 2.37 cm^3 | 1.47 cm^3 | 0.54 cm^3 | 24% | 3.11 cm^3 | 2.16 cm^3 | 0.55 cm^3 | significantly inhibit the uptake of DNA | does not affect the growth | significantly inhibited | 56.8% | 56.8% | 0.43 cm^3 | 1.8 cm^3 | 0.92 cm^3
